The source of these data is ChEMBL document CHEMBL5096225 (J Med Chem, 2022).

A short description of the data set: Solubility of the compound in deionized water. Format: physicochemical.

Values after ≈ are worked out from the molar mass of the structure shown.

In turn, `O=C(c1cc(O)cc(F)c1)c1cc(O)c(O)c([N+](=O)[O-])c1` yielded a solubility of 56 µg/mL (≈ 191 µM).

In the case of `Cc1ccc(C(=O)c2cc(O)c(O)c([N+](=O)[O-])c2)cc1` [TOLCAPONE], the solubility turned out to be 45 µg/mL (≈ 165 µM).
